From patent US8624036B2, “2-aryl-propionic acids and derivatives and pharmaceutical compositions containing them” (Dompe S.p.A., priority 2008, dated 2014) come the findings set out here.

For data set [1], the system named is CXCL8 induced chemotaxis of PMNs. Kind of data set: CXCL8 induced chemotaxis of human PMNs. The format is cell-based. Particulars: CXCL8 10^−9 M; for inhibition at 0.001 µM / inhibition at 0.01 µM: Homo sapiens; for inhibition at 0.001 µM / CXCL8 (% inhibition at 10^−9 M): compound at 10^−9 M; for inhibition at 0.01 µM: read-out: CXCL8 (% inhibition), tested at 10^−8 M. The procedure: (§1) The compounds of the invention of formula (I) were evaluated in vitro for their ability to inhibit chemotaxis of polymorphonucleate leukocytes (hereinafter referred to as PMNs) and monocytes induced by the fractions of CXCL8 and GRO-α. For this purpose, in order to isolate the PMNs from heparinized human blood, taken from healthy adult volunteers, mononucleates were removed by means of sedimentation on dextran (W. J. Ming et al., J. Immunol., 138, 1469, 1987). The cell vitality was calculated by exclusion with Trypan blue, whilst the ratio of the circulating polymorphonucleates was estimated on the cytocentrifugate after staining with Diff Quick.
In the CXCL8 induced chemotaxis assay human recombinant CXCL8 (Pepro Tech) was used as stimulating agent in the chemotaxis experiments: the lyophilized protein was dissolved in a volume of HBSS containing 0.2% bovin serum albumin (BSA) in order to obtain a stock solution having a concentration of 10^−5 M to be diluted in HBSS to a concentration of 10^−9 M, for the chemotaxis assays.
(§2) In the chemotaxis experiments, the PMNs were incubated with the compounds of the invention of formula (I) for 15′ at 37° C. in an atmosphere containing 5% CO2. During the chemotaxis assay (W. Falket et al., J. Immunol. Methods, 33, 239, 1980) PVP-free filters with a porosity of 5 μm and microchambers suitable for replication were used.
(§3) The compounds of the invention in formula (I) were evaluated at a concentration ranging between 10^−6 and 10^−10 M; for this purpose they were added, at the same concentration, both to the lower pores and the upper pores of the microchamber. Evaluation of the ability of the compounds of the invention of formula (I) to inhibit the chemotaxis of human monocytes was carried out according to a disclosed method (J. Van Damme et al., Eur. J. Immunol., 19, 2367, 1989).

The subject of data set [2] is GRO-α induced chemotaxis of PMNs. Kind of data set: GRO-α (CXCL1) induced chemotaxis of human PMNs. It is filed as cell-based. Particulars: compound at 10^−8 M; for inhibition at 0.01 µM: Homo sapiens. The procedure:
as §1
GRO-α induced chemotaxis inhibition was evaluated in an analogous assay.
as §2, §3

Data set [3] has as its system transient cerebral ischemia induced by occlusion of the middle cerebral artery. Kind of data set: Transient cerebral ischemia by middle cerebral artery (MCA) occlusion in rats. Particulars: short-term effect (24 hours). The format is in vivo. The method, then: The compounds of the present invention are particularly useful in the prevention and treatment of damages caused by ischemia/reperfusion, specifically in the protection from the functional injury induced by temporary cerebral middle cerebral artery (MCA) occlusion. Specifically, compound 3a was evaluated in terms of efficacy in a model of transient cerebral ischemia induced in rats by occlusion of the middle cerebral artery (MCA). The short-term effect (24 hours) of 3a on cerebral myeloperoxidase (MPO) activity, a marker of PMN infiltration, brain damage and neurological deficits, was investigated.

Setting [4] is: compound at 10^−8 M (footnote *).

Marks after values point to notes of the source that are not given here.

A word on the inhibition: it is the percentage by which the read-out fell short of the control. With `C[C@H](NC(=O)[C@@H](C)c1ccc(Nc2nc(C(F)(F)F)co2)cc1)C(N)=O` [Compound 25, (2S)—N-[(1S)-2-Amino-1-methyl-2-oxoethyl]-2-(4-{[4-(trifluoromethyl)-1,3-oxazol-2-yl]amino}phenyl) propanamide], the inhibition at 0.001 µM in data set [1] was 46 ± 12%. For the same molecule, in data set [2], 0.01 µM produced 39 ± 14% inhibition.
As to `CC(C)(C(=O)O)c1ccc(Nc2nc(C(F)(F)F)cs2)cc1` [Compound 2, 2-Methyl-2-(4-{[4-(trifluoromethyl)-1,3-thiazol-2-yl]amino}phenyl)propanoic acid], in data set [1], the inhibition at 0.001 µM worked out at 56 ± 10%. The molecule also displayed an inhibition at 0.01 µM in data set [2] of 42 ± 9%.
On to `CC(C(=O)O)c1ccc(Nc2nc(C(F)(F)F)cs2)cc1` (stereo not drawn) [Compound 1, 2-(4-{[4-(Trifluoromethyl)-1,3-thiazol-2-yl]amino}phenyl)propanoic acid], for which the inhibition at 0.01 µM stood at 43 ± 7% in data set [1] (setting [4]) and 40 ± 6% in data set [2].
`C[C@H](C(N)=O)c1ccc(Nc2nc(C(F)(F)F)co2)cc1` [Compound 22, (2S)-2-(4-{[4-(Trifluoromethyl)-1,3-oxazol-2-yl]amino}phenyl) propanamide] came in with an inhibition at 0.001 µM in data set [1] of 58 ± 5%. The inhibition at 0.01 µM in data set [2] was found to be 49 ± 6%.
The like results for `C[C@H](C(=O)O)c1ccc(Nc2nc(C(F)(F)F)co2)cc1` [Compound 19, (2S)-2-(4-{[4-(Trifluoromethyl)-1,3-oxazol-2-yl]amino}phenyl)propanoic acid] were, in that order, 44 ± 10% and 36 ± 11%.
In turn, `C[C@H](C(N)=O)c1ccc(N(C)c2nc(C(F)(F)F)co2)cc1` [Compound 23, (2S)-2-(4-{Methyl-[4-(trifluoromethyl)-1,3-oxazol-2-yl]amino}phenyl)propanamide] returned an inhibition at 0.001 µM in data set [1] of 45 ± 13%. This molecule also showed an inhibition at 0.01 µM in data set [2] of 39 ± 2%.
In data set [1], `C[C@H](C(=O)NS(C)(=O)=O)c1ccc(Nc2nc(C(F)(F)F)cs2)cc1` [Compound 11, (2S)—N-(Methylsulfonyl)-2-(4-{[4-(trifluoromethyl)-1,3-thiazol-2yl]amino}phenyl) propanamide] came in with an inhibition at 0.001 µM of 54 ± 16%. Besides, 0.01 µM produced 39 ± 7% inhibition in data set [2].
On to `C[C@H](C(=O)NS(=O)(=O)C(F)(F)F)c1ccc(Nc2nc(C(F)(F)F)cs2)cc1` [Compound 12], for which, in data set [1] (setting [4]), the “CXCL8 (% inhibition), tested at 10^−8 M” value is recorded as 48 ± 13* %. Moreover, the “CXCL1 (% inhibition at 10^−8 M)” value in data set [2] is on record as 30 ± 7%.
The molecule `C[C@H](C(N)=O)c1ccc(N(C)c2nc(C(F)(F)F)cs2)cc1` [Compound 14, (2S)-2-(4-{Methyl[4-(trifluoromethyl)-1,3-thiazol-2-yl]amino}phenyl)propanamide] displayed an inhibition at 0.001 µM in data set [1] of 45 ± 14%. The same molecule came in with an inhibition at 0.01 µM in data set [2] of 34 ± 13%.
As to `CC(C(=O)O)c1ccc(Nc2nc(C(C)(C)C)cs2)cc1` (stereo not drawn) [Compound 6, 2-{4-[(4-tert-Butyl-1,3-thiazol-2-yl)amino]phenyl}propanoic acid], the inhibition at 0.01 µM in data set [1] (setting [4]) was 55 ± 10%; in data set [2] it was 36 ± 10%.
In data set [1], `C[C@H](C(=O)NO)c1ccc(Nc2nc(C(F)(F)F)cs2)cc1` [Compound 10, (2S)—N-Hydroxy-2-(4-{[4-(trifluoromethyl)-1,3-thiazol-2-yl]amino}phenyl) propanamide] showed an inhibition at 0.001 µM of 51 ± 10%. The molecule further showed an inhibition at 0.01 µM in data set [2] of 47 ± 12%.
The like results for `C[C@H](C(=O)O)c1ccc(Nc2nc(C(C)(C)C)cs2)cc1` [Compound 7, (2S)-2-{4-[(4-tert-Butyl-1,3-thiazol-2-yl)amino]phenyl}propanoic acid] were, in that order, 50 ± 8% and 45 ± 10%.
`C[C@H](C(N)=O)c1ccc(Nc2nc(C(C)(C)C)cs2)cc1` [Compound 15, (2S)-2-{4-[(4-tert-Butyl-1,3-thiazol-2-yl)amino]phenyl}propanamide] came in with an inhibition at 0.001 µM in data set [1] of 48 ± 8%. Besides, 0.01 µM produced 45 ± 10% inhibition in data set [2].
For the molecule `C[C@H](NC(=O)[C@@H](C)c1ccc(Nc2nc(C(F)(F)F)co2)cc1)C(=O)O` [Compound 24, (2S)-2-{[(2S)-2-(4-{[4-(Trifluoromethyl)-1,3-oxazol-2-yl]amino}phenyl)propanoyl]amino}propanoic acid], the inhibition at 0.01 µM in data set [1] (setting [4]) amounted to 54 ± 12%; in data set [2] it was 34 ± 8%.
One may read the melting point as the temperature, or range, at which the solid turns liquid. In turn, `CC(C)[C@H](NC(=O)[C@@H](C)c1ccc(Nc2nc(C(F)(F)F)cs2)cc1)C(=O)O` [Compound 17, (2S)-3-Methyl-2-{[(2S)-2-(4-{[4-(trifluoromethyl)-1,3-thiazol-2-yl]amino}phenyl)propanoyl]amino}butanoic acid] returned a melting point of 99 to 101 °C. Further, in data set [1], the inhibition at 0.001 µM was determined as 39 ± 2%. The molecule also showed an inhibition at 0.01 µM in data set [2] of 40 ± 12%.
In turn, `C[C@H](C(N)=O)c1ccc(Nc2nc(C(F)(F)F)cs2)cc1` [Compound 13] showed a melting point of 204 to 205 °C. This molecule also registered an inhibition at 0.001 µM in data set [1] of 47 ± 3%. In addition, the inhibition at 0.01 µM in data set [2] was found to be 44 ± 9%.
On to `Cc1csc(Nc2ccc(C(C)C(=O)O)cc2)n1` (stereo not drawn) [Compound 4, 2-{4-[(4-Methyl-1,3-thiazol-2-yl)amino]phenyl}propanoic acid], for which the inhibition at 0.01 µM was 46 ± 6% in data set [1] (setting [4]) and 45 ± 10% in data set [2].
Consider `C[C@H](C(=O)O)c1ccc(Nc2nc(C(F)(F)F)cs2)cc1` [Compound 3, (2S)-2-(4-{[4-(Trifluoromethyl)-1,3-thiazol-2-yl]amino}phenyl)propanoic acid], for which testing at 0.001 µM in data set [1] gave an inhibition of 66 ± 11%. Further, 0.01 µM produced 58 ± 6% inhibition in data set [2].
Take `C[C@H](C(=O)NS(C)(=O)=O)c1ccc(Nc2nc(C(F)(F)F)co2)cc1` [Compound 21, (2S)—N-(Methylsulfonyl)-2-(4-{[4-(trifluoromethyl)-1,3-oxazol-2-yl]amino}phenyl) propanamide]: in data set [1], the “CXCL8 (% inhibition at 10^−9 M)” value is given as 43 ± 6%. Also, in data set [2], the “CXCL1 (% inhibition at 10^−8 M)” value amounted to 37 ± 2%.
As to `C[C@H](C(=O)[O-])c1ccc(Nc2nc(C(F)(F)F)cs2)cc1.[Na+]` [Compound 3a, Sodium (2S)-2-(4-{[4-(trifluoromethyl)-1,3-thiazol-2-yl]amino}phenyl)propanoate], the “CXCL8 (% inhibition at 10^−9 M)” value in data set [1] is 64 ± 9%. Besides, in data set [2], the “CXCL1 (% inhibition at 10^−8 M)” value is 55 ± 8%. In addition, in data set [3], the “PMN infiltrate (cerebral myeloperoxidase (MPO) activity)” value is reported as “efficacious in reducing PMN infiltrate”, the “infarct size (brain damage)” value is recorded as “efficacious in reducing” and the “neurological functions (neurological deficits)” value is on record as “improving significantly neurological functions”.
Consider `CC(C(=O)O)c1ccc(Nc2nc(C(F)(F)F)co2)cc1` (stereo not drawn) [Compound 18, 2-{4-[(4-Trifluoromethyl)-oxazol-2-yl]amino}phenyl propionic], for which the results for the inhibition at 0.01 µM in data set [1] (setting [4]) and in data set [2] were 47 ± 12% and 60 ± 9%, respectively.
In turn, `C[C@H](C(=O)O)c1ccc(N(C)c2nc(C(F)(F)F)co2)cc1` [Compound 20, (2S)-2-(4-{Methyl[4-(trifluoromethyl)-1,3-oxazol-2-yl]amino}phenyl)propanoic acid] yielded an inhibition at 0.001 µM in data set [1] of 47 ± 8%. In data set [2], the inhibition at 0.01 µM amounted to 44 ± 7%.
The like results for `Cc1csc(Nc2ccc([C@H](C)C(=O)O)cc2)n1` [Compound 5, (2S)-2-{4-[(4-Methyl-1,3-thiazol-2-yl)amino]phenyl}propanoic acid] were, in that order, 40 ± 11% and 38 ± 10%.
In the case of `C[C@H](C(=O)N[C@H](C)C(=O)O)c1ccc(Nc2nc(C(F)(F)F)cs2)cc1` [Compound 16, (2R)-2-{[(2S)-2-(4-{[4-(Trifluoromethyl)-1,3-thiazol-2-yl]amino}phenyl)propanoyl]amino}propanoic acid], 0.001 µM produced 42 ± 7% inhibition in data set [1]. The molecule also displayed an inhibition at 0.01 µM in data set [2] of 30 ± 15%.
Take `CC(C(=O)O)c1ccc(N(C)c2nc(C(F)(F)F)cs2)cc1` (stereo not drawn) [Compound 8, 2-(4-{Methyl[4-(trifluoromethyl)-1,3-thiazol-2-yl]amino}phenyl)propanoic acid]: the results for the inhibition at 0.01 µM in data set [1] (setting [4]) and in data set [2] were 45 ± 5% and 39 ± 10%, respectively.
`C[C@H](C(=O)O)c1ccc(N(C)c2nc(C(F)(F)F)cs2)cc1` [Compound 9, (2S)-2-(4-{methyl[4-(trifluoromethyl)-1,3-thiazol-2-yl]amino}phenyl)propanoic acid] had an inhibition at 0.001 µM in data set [1] of 41 ± 7%. In addition, the inhibition at 0.01 µM in data set [2] worked out at 40 ± 12%.
